Common to all, as to assay type: physicochemical
Data set [1] is described as follows: Test 2: octanol/phosphate buffer partition coefficient of BPS with various cations. As to conditions: for PC of BPS, Equimolar amount: cation added to give equal charge; for PC of BPS, Excess × 20: cation added to give charges 20 times more; for effect of added compound on the partition coefficient of BPS (in words): octanol/phosphate buffer pH 7, compared to no ionic compound added. As to the method: (§1) BPS was dissolved in phosphate buffer solution having pH of 5 to 8 in a concentration of 240 μg/ml. Various cations were added to the mixtures to give equivalent charge to that of BPS or 5 times or 20 times more than that of BPS. The same volume of octanol as that of the aqueous phase was added to the mixture followed by shaking at 37° C. for an hour. After centrifugation, the concentration of the pharmaceutically active substance in the aqueous phase was measured to calculate the partition coefficient.
(§2) partition coefficient=concentration of the pharmaceutically active substance in the octanol phase/concentration of the pharmaceutically active substance in the aqueous phase
A variety of cations were examined with their effect if these cations would affect the partition coefficient of BPS in octanol/phosphate buffer solution (pH 7).
The pharmaceutically active substance was dissolved in an aqueous phase in a concentration of 240 μg/ml. Various cations were added to the solution to give equal charge to that of the pharmaceutically active substance or charges 20 times more than that of the substance. Then the same procedure as in Test 1 was applied to calculate the partition coefficient.

The nature of data set [2]: Test 1: effect of ratio of benzalkonium chloride added and pH on octanol/phosphate buffer partition coefficient of BPS. As to the method:
as §1, §2

Data set [3] in a line: Test 3: in vitro release test of gel preparation using various cations. The following applies: 10 ml phosphate buffer solution (pH 7.4) at 37° C. The procedure: Each of the gel preparations obtained in Examples 1 to 9 and Comparative Examples 1 to 3 was evaluated, respectively, with regard to the release of the active substance in 10 ml of a phosphate buffer solution (pH 7.4) at 37° C.

[4] abbreviates: octanol/phosphate buffer pH 7, 37° C., BPS 240 μg/ml.

24 molecules from patent US6919372B1, “Sustained release pharmaceutical compositions” (Yamanouchi Pharmaceutical Co., Ltd., priority 1997, dated 2005) can be followed below.

Structures can show the parent of a compound that is named as a salt.

With `CC#CCC(C)[C@H](O)/C=C/[C@@H]1[C@H]2c3cccc(CCCC(=O)O)c3O[C@H]2C[C@H]1O` (relative stereo) [BPS, (±)-(1R*,2R*,3aS*,8bS*)-2,3,3a,8b-tetrahydro-2-hydroxy-1-[(e)-(3S*)-3-hydroxy-4-methyl-1-octen-6-ynyl]-1H-cyclopenta[b]benzofuran-5-butanoic acid, reference compound], in data set [1] (octanol/phosphate buffer pH 7, 37° C., BPS 240 μg/ml, cation added: None), the “PC of BPS, no cation added” value is 16.2. In data set [2] (phosphate buffer pH 5 to 8, FIG. 1), the “partition coefficient of BPS as the pH increased” value was “decreased as the pH increased”.
Regarding `CCCCCCCCCCCCCCCCCCCCCC[N+](C)(C)C.[Cl-]` [Behenyltrimethylammonium chloride], in data set [1] (setting [4]), the “PC of BPS, Equimolar amount” value was 59.5.
Consider `CC(C)(C)CC(C)(C)c1ccc(OCCOCC[N+](C)(C)Cc2ccccc2)cc1` [Benzethonium chloride], for which, in data set [1] (setting [4]), the “PC of BPS, Excess × 20” value worked out at 1180 and the “PC of BPS, Equimolar amount” value was 70.8.
As for `CCCCCCCCCCCCCCCC[N+](C)(C)C.[Cl-]` [Cetyltrimethylammonium chloride], in data set [1] (setting [4]), the “PC of BPS, Excess × 20” value was 935 and the “PC of BPS, Equimolar amount” value turned out to be 91.6.
For the molecule `CCCCCCCCCCCC[N+](C)(C)Cc1ccccc1.[Cl-]` [Lauryldimethylbenzylammonium chloride], in data set [1] (setting [4]), the “PC of BPS, Excess × 20” value is recorded as 1220 and the “PC of BPS, Equimolar amount” value is reported as 71.2.
The matching figures for `CCCCCCCCCCCC[n+]1ccccc1.[Cl-]` [Laurylpyridinium chloride]: 1200 and 75.0.
On to `CCCCCCCCCCCC[N+](C)(C)C.[Cl-]` [Lauryltrimethylammonium chloride], for which, in data set [1] (setting [4]), the “PC of BPS, Excess × 20” value is given as 985 and the “PC of BPS, Equimolar amount” value is listed as 83.5. The “effect of added compound on the partition coefficient of BPS (in words)” value (from here on “effect of added compound”) in data set [1] is “increase”.
Take `CCN(CC)CC(=O)Nc1c(C)cccc1C` [Lidocaine hydrochloride, reference compound]: in data set [1] (setting [4]), the “PC of BPS, Excess × 20” value worked out at 37.5 and the “PC of BPS, Equimolar amount” value was determined as 17.1.
In the case of `CCCNC(C)(C)COC(=O)c1ccccc1` [Meprylcaine hydrochloride, reference compound], in data set [1] (setting [4]), the “PC of BPS, Excess × 20” value came out at 53.3 and the “PC of BPS, Equimolar amount” value came out at 17.7. The “effect of added compound” value in data set [1] is on record as “increase”.
As for `CCCCCCCCCCCCCC[N+](C)(C)Cc1ccccc1.[Cl-]` [Myristyldimethylbenzylammonium chloride], in data set [1] (setting [4]), the “PC of BPS, Excess × 20” value turned out to be 1210 and the “PC of BPS, Equimolar amount” value is 64.5.
In the case of `CCCCCCCC[N+](C)(C)Cc1ccccc1.[Cl-]` [Octyldimethylbenzylammonium chloride], in data set [1] (setting [4]), the “PC of BPS, Excess × 20” value was 568 and the “PC of BPS, Equimolar amount” value worked out at 60.9.
For `CC(=O)O.CCCCCCCC/C=C\CCCCCCCCN` [Oleylamine acetate], in data set [1] (setting [4]), the “PC of BPS, Excess × 20” value was 473 and the “PC of BPS, Equimolar amount” value came to 30.4.
The matching figures for `CC(=O)O.CCCCCCCCCCCCCCCCCCN` [Stearylamine acetate]: 158 and 32.6.
As to `CCCCCCCCCCCCCCCCCC[N+](C)(C)Cc1ccccc1.[Cl-]` [Stearyldimethylbenzylammonium chloride], in data set [1] (setting [4]), the “PC of BPS, Excess × 20” value is 1350 and the “PC of BPS, Equimolar amount” value amounted to 62.3.
Consider `CCCCCCCCCCCCCCCCCC[N+](C)(C)C.[Cl-]` [Stearyltrimethylammonium chloride], for which, in data set [1] (setting [4]), the “PC of BPS, Excess × 20” value stood at 995 and the “PC of BPS, Equimolar amount” value came out at 83.4.
Turning to `CCCC[N+](CCCC)(CCCC)Cc1ccccc1.[Cl-]` [Tributylbenzylammonium chloride], in data set [1] (setting [4]), the “PC of BPS, Excess × 20” value is 140 and the “PC of BPS, Equimolar amount” value stood at 24.5.
Consider `CC[N+](CC)(CC)Cc1ccccc1.[Cl-]` [Triethylbenzylammonium chloride], for which the “effect of added compound” value in data set [1] is given as “increase”.
In the case of `Cl.N=C(N)NCCC[C@H](N)C(=O)O` [arginine hydrochloride, reference compound], the “effect of added compound” value in data set [1] is recorded as “no increase”. For the same molecule, the “release of the active substance from gel preparation” value in data set [3] is “no delayed release”.
On to `[Cl-].[Cl-].[Mg+2]` [magnesium chloride, reference compound], for which the “effect of added compound” value in data set [1] is recorded as “no increase”.
On to `O=S(=O)([O-])[O-].[Mg+2]` [magnesium sulfate], for which, in data set [3], the “release of the active substance from gel preparation” value is given as “no delayed release”.
As to `[Cl-].[Na+]` [sodium chloride], the “partition coefficient of BPS when sodium chloride was added to make the solution isotonic” value in data set [2] (20 times of equivalent molar ratio of benzalkonium chloride included) is on record as “decreased”.
As to `CCCCCCCCCCCCOS(=O)(=O)[O-].[Na+]` [sodium lauryl sulfate, reference compound], the “effect of added compound” value in data set [1] is “no change”.
For the molecule protamine sulfate [reference compound], in data set [1], the “effect of added compound” value is “did not affect”.
Take “sorbitan sesquioleate [reference compound]”: in data set [1], the “effect of added compound” value is listed as “no change”.
